# Measured values reported in patent US20260215428A1, “WEED CONTROL METHOD” (SYNGENTA CROP PROTECTION AG, priority 2023, published 2026).
# Tests used:
# Assay type in all cases: in vivo
# Volunteer corn = test: 26 field trials, control of volunteer corn, Table B1-6
# Lolium multiflorum = test: Further glasshouse test versus other ACCase-inhibiting herbicides, Table B2-1; conditions: 21 days after application
# Description: Further tests were employed to test the efficacy of a compound of Formula I versus other ACCase-inhibiting herbicides. The five main targets were Lolium multiflorum, Eleusine indica, Digitaria insularis, Sorghum halepense and Echinochloa crus-galli. Collectively, the populations contained all the major target-site resistance mutations affecting ACCase herbicides. Two L. multiflorum (LM-NTSR-1 and LM-NTSR-2) and one E. crus-galli (ECG-NTSR-1) populations were characterised exclusively by non-target-site resistance (“NTSR”). The target-site resistant L. multiflorum and E. indication populations were 100% homozygous for different ACCase mutations whilst the D. insularis, S. halepense and E. crus-galli samples contained a mixture of homozygous wild and mutant individuals at different genotypic frequencies. Additional underlying NTSR cannot be ruled out in the populations characterised by target-site resistance.
# Around 50 seeds of each of the 24 weed populations were sown in 12-cm pots containing a mixture of peat and compost in a 1:1 ratio. The pots were watered, fertilised and kept in controlled glasshouse conditions set at 24° C./16 hr day, 18° C. night, 65% relative humidity, and a photon flux density of approximately 250 μmol quanta m^−2 s^−1 for Lolium multiflorum. The E. indica, D. insularis, S. halepense and E. crus-galli plants were kept in a separate glasshouse bay characterised by a 17 H photoperiod of 180 μmol m^−2 s^−1 with temperatures of 25° C. day and 19° C. night and 65% relative humidity. When the plants were at the two to four-leaf stage, they were treated with the various ACCase-inhibiting herbicides at 0, 15, 30, 60, 120 and 240 g ai ha^−1 in a spray cabinet mounted with a single mobile Teejet flat fan nozzle (11002VS) calibrated to deliver 200 L ha^−1 at 200 kPa. The L. multiflorum populations were treated by a compound of Formula Ic, clodinafop-propargyl, pinoxaden, cycloxydim and clethodim and the warm season grass weeds E. indica, D. insularis, S. halepense and E. crus-galli were sprayed with a Compound Ic and the commonly employed haloxyfop-methyl and clethodim. Three replicate pots were used per population. Plants were assessed for visual damage compared to the untreated control 21 days after application (0=0% damage; 100=100% damage).
# Eleusine indica = test: Glasshouse post-emergence test, visual damage, Tables B1-2 and B1-3; conditions: Table B1-2, 14 days after application
# Experimental: Seeds of a variety of test species are sown in standard soil in pots. For each treatment, three replicate pots containing 10-15 plants per one-inch pot were sprayed at the 2-3 leaf stage. […] The test plants are then grown in a glasshouse under controlled conditions in a glasshouse (at 24/16° C., day/night; 14 hours light; 65% humidity) and watered twice daily. Plants were assessed for visual damage compared to the untreated control 14 days after application (0=0% damage; 100=100% damage).
smiles,measurement,setting,value
CC#Cc1ccc(C2=C(OC(=O)OC)C3CCC(C3)C2=O)c(OC)c1 (stereo not drawn) [Compound Ic],Control (14d),Volunteer corn; 25 g/ha,93%
same,Control (28d),Volunteer corn; 25 g/ha,99%
same,Control (14d),Volunteer corn; 50 g/ha,99%
same,Control (28d),Volunteer corn; 50 g/ha,100%
same,Control (14d),Volunteer corn; 100 g/ha,99%
same,Control (28d),Volunteer corn; 100 g/ha,100%
same,Control (14d),Volunteer corn; 200 g/ha,99%
same,Control (28d),Volunteer corn; 200 g/ha,100%
same,visual damage,"Lolium multiflorum; biotype C2088R, 15 g/ha",100%
same,visual damage,"Lolium multiflorum; biotype C2088R, 30 g/ha",100%
same,visual damage,"Lolium multiflorum; biotype C2088R, 60 g/ha",100%
same,visual damage,"Lolium multiflorum; biotype C2088R, 120 g/ha",100%
same,visual damage,"Lolium multiflorum; biotype C2088R, 240 g/ha",100%
same,visual damage,"Lolium multiflorum; biotype D2078G, 15 g/ha",20%
same,visual damage,"Lolium multiflorum; biotype D2078G, 30 g/ha",90%
same,visual damage,"Lolium multiflorum; biotype D2078G, 60 g/ha",100%
same,visual damage,"Lolium multiflorum; biotype D2078G, 120 g/ha",100%
same,visual damage,"Lolium multiflorum; biotype D2078G, 240 g/ha",100%
same,visual damage,"Lolium multiflorum; biotype I1781L, 15 g/ha",100%
same,visual damage,"Lolium multiflorum; biotype I1781L, 30 g/ha",100%
same,visual damage,"Lolium multiflorum; biotype I1781L, 60 g/ha",100%
same,visual damage,"Lolium multiflorum; biotype I1781L, 120 g/ha",100%
same,visual damage,"Lolium multiflorum; biotype I1781L, 240 g/ha",100%
same,visual damage,"Lolium multiflorum; biotype Sensitive, 15 g/ha",100%
same,visual damage,"Lolium multiflorum; biotype Sensitive, 30 g/ha",100%
same,visual damage,"Lolium multiflorum; biotype Sensitive, 60 g/ha",100%
same,visual damage,"Lolium multiflorum; biotype Sensitive, 120 g/ha",100%
same,visual damage,"Lolium multiflorum; biotype Sensitive, 240 g/ha",100%
same,visual damage,"Lolium multiflorum; biotype W1999S, 15 g/ha",85%
same,visual damage,"Lolium multiflorum; biotype W1999S, 30 g/ha",100%
same,visual damage,"Lolium multiflorum; biotype W1999S, 60 g/ha",100%
same,visual damage,"Lolium multiflorum; biotype W1999S, 120 g/ha",100%
same,visual damage,"Lolium multiflorum; biotype W1999S, 240 g/ha",100%
same,visual damage,"Lolium multiflorum; biotype W2027C, 15 g/ha",88%
same,visual damage,"Lolium multiflorum; biotype W2027C, 30 g/ha",100%
same,visual damage,"Lolium multiflorum; biotype W2027C, 60 g/ha",100%
same,visual damage,"Lolium multiflorum; biotype W2027C, 120 g/ha",100%
same,visual damage,"Lolium multiflorum; biotype W2027C, 240 g/ha",100%
same,visual damage,"Lolium multiflorum; population LM-NTSR-1 (non-target-site resistance), 15 g/ha",93%
same,visual damage,"Lolium multiflorum; population LM-NTSR-1 (non-target-site resistance), 30 g/ha",100%
same,visual damage,"Lolium multiflorum; population LM-NTSR-1 (non-target-site resistance), 60 g/ha",100%
same,visual damage,"Lolium multiflorum; population LM-NTSR-1 (non-target-site resistance), 120 g/ha",100%
same,visual damage,"Lolium multiflorum; population LM-NTSR-1 (non-target-site resistance), 240 g/ha",100%
same,visual damage,"Lolium multiflorum; population LM-NTSR-2 (non-target-site resistance), 15 g/ha",48%
same,visual damage,"Lolium multiflorum; population LM-NTSR-2 (non-target-site resistance), 30 g/ha",82%
same,visual damage,"Lolium multiflorum; population LM-NTSR-2 (non-target-site resistance), 60 g/ha",87%
same,visual damage,"Lolium multiflorum; population LM-NTSR-2 (non-target-site resistance), 120 g/ha",100%
same,visual damage,"Lolium multiflorum; population LM-NTSR-2 (non-target-site resistance), 240 g/ha",100%
same,visual damage,"Eleusine indica; biotype 87% I1781L (heterozygous), 15 g/ha",97%
same,visual damage,"Eleusine indica; biotype 87% I1781L (heterozygous), 30 g/ha",100%
same,visual damage,"Eleusine indica; biotype 87% I1781L (heterozygous), 60 g/ha",100%
same,visual damage,"Eleusine indica; biotype 87% I1781L (heterozygous), 120 g/ha",100%
same,visual damage,"Eleusine indica; biotype D2078G + W2027C (heterozygous), first entry, 15 g/ha",87%
same,visual damage,"Eleusine indica; biotype D2078G + W2027C (heterozygous), first entry, 30 g/ha",100%
